# Laboratory results reported in US10765114B2, “4-amino-6-(pyridyl and 2-substitutedphenyl)-picolinates and 6-amino-2-(pyridyl and 2-substitutedphenyl)-pyrimidine-4-carboxylates and their use as herbicides” (Dow AgroSciences LLC, priority 2013, dated 2020).
# Read-outs that look alike come from different tables or passages of the source.
# What was measured:
# [1] = tested on: Key Broadleaf Weed and Crop Species; test: Post-Emergent Test II (Table 5); type: in vivo; details: post-emergence, 336 h; for pest or weed control at 70 g/ha: application rate 70 (kg ai/ha; footnote: g ai/ha); for pest or weed control at 140 g/ha: application rate 140 (kg ai/ha; footnote: g ai/ha)
# In short: (§1)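 Plants grown in a greenhouse (~15 h photoperiod, 23-29° C day) to first or second true leaf stage were sprayed post-emergence at 187 L/ha with compound in acetone/DMSO-based aqueous spray containing crop oil concentrate and surfactant, applied at a high rate plus ½× to 1/16× serial rates. Injury was scored visually 14 days later, 0-100% versus untreated plants.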
# [2] = tested on: Key Grass and Sedge Weeds as well as Grass Crops; test: Post-Emergent Test II (Table 6); type: in vivo; details: post-emergence, 336 h, 14 days after application; for pest or weed control at 70 g/ha: 70 g ai/ha; for pest or weed control at 140 g/ha: 140 g ai/ha
# In short: as §1
# [3] = Abutilon theophrasti, ABUTH: velvetleaf (Abutilon theophrasti), read-out: Visual Growth Reduction (%) 14 Days After Application ABUTH
# [4] = Amaranthus retroflexus, AMARE: redroot pigweed (Amaranthus retroflexus), read-out: Visual Growth Reduction (%) 14 Days After Application AMARE
# [5] = Brassica napus, BRSSS: oilseed rape, canola (Brassica napus), read-out: Visual Growth Reduction (%) 14 Days After Application BRSSS
# [6] = Chenopodium album, CHEAL: lambsquarters (Chenopodium album), read-out: Visual Growth Reduction (%) 14 Days After Application CHEAL
# [7] = Euphorbia heterophylla, EPHHL: wild poinsettia (Euphorbia heterophylla), read-out: Visual Growth Reduction (%) 14 Days After Application EPHHL
# [8] = Helianthus annuus, HELAN: sunflower (Helianthus annuus), read-out: Visual Growth Reduction (%) 14 Days After Application HELAN
# [9] = Viola tricolor, VIOTR: wild pansy (Viola tricolor), read-out: Visual Growth Reduction (%) 14 Days After Application VIOTR
# [10] = CYPSS, read-out: Visual Growth Reduction (%) 14 Days After Application CYPSS
# [11] = DIGSA: crabgrass (Digitaria sanguinalis), read-out: Visual Growth Reduction (%) 14 Days After Application DIGSA
# [12] = ECHSS, read-out: Visual Growth Reduction (%) 14 Days After Application ECHSS
# [13] = ORYSS (crop), read-out: Visual Growth Reduction (%) 14 Days After Application ORYSS
# [14] = SETFA: giant foxtail (Setaria faberi), read-out: Visual Growth Reduction (%) 14 Days After Application SETFA
# [15] = SORVU: grain sorghum (Sorghum vulgare), read-out: Visual Growth Reduction (%) 14 Days After Application SORVU
# [16] = TRZSS (crop), read-out: Visual Growth Reduction (%) 14 Days After Application TRZSS
# [17] = ZEAMX: maize, corn (Zea mays), read-out: Visual Growth Reduction (%) 14 Days After Application ZEAMX
SMILES,"pest or weed control at 70 g/ha [1, 3] [%]","pest or weed control at 140 g/ha [1, 3] [%]","pest or weed control at 70 g/ha [1, 4] [%]","pest or weed control at 140 g/ha [1, 4] [%]","pest or weed control at 70 g/ha [1, 5] [%]","pest or weed control at 140 g/ha [1, 5] [%]","pest or weed control at 70 g/ha [1, 6] [%]","pest or weed control at 140 g/ha [1, 6] [%]","pest or weed control at 70 g/ha [1, 7] [%]","pest or weed control at 140 g/ha [1, 7] [%]","pest or weed control at 70 g/ha [1, 8] [%]","pest or weed control at 140 g/ha [1, 8] [%]","pest or weed control at 70 g/ha [1, 9] [%]","pest or weed control at 140 g/ha [1, 9] [%]",melting point [°C],"pest or weed control at 70 g/ha [2, 10] [%]","pest or weed control at 140 g/ha [2, 10] [%]","pest or weed control at 70 g/ha [2, 11] [%]","pest or weed control at 140 g/ha [2, 11] [%]","pest or weed control at 70 g/ha [2, 12] [%]",further results
Cc1c(-c2cc(N)c(Cl)c(C(=O)O)n2)ccc(Cl)c1F [Compound 52],95 to 100,95 to 100,95 to 100,95 to 100,95 to 100,95 to 100,95 to 100,95 to 100,75 to 84,85 to 94,95 to 100,95 to 100,85 to 94,85 to 94,160 to 162,85 to 94,95 to 100,0 to 29,30 to 44,30 to 44,"pest or weed control at 140 g/ha [2, 12]: 45 to 59%; pest or weed control at 70 g/ha [2, 13]: 0 to 29%; pest or weed control at 140 g/ha [2, 13]: 0 to 29%; pest or weed control at 70 g/ha [2, 14]: 0 to 29%; pest or weed control at 140 g/ha [2, 14]: 45 to 59%; pest or weed control at 70 g/ha [2, 15]: 0 to 29%; pest or weed control at 140 g/ha [2, 15]: 30 to 44%; pest or weed control at 70 g/ha [2, 16]: 45 to 59%; pest or weed control at 140 g/ha [2, 16]: 60 to 74%; pest or weed control at 70 g/ha [2, 17]: 45 to 59%; pest or weed control at 140 g/ha [2, 17]: 60 to 74%"
"Nc1c(F)c(-c2ccc(C(F)F)nc2)nc(C(=O)O)c1Cl [Compound 27, 4-amino-5-chloro-6′-(difluoromethyl)-3-fluoro-[2,3′-bipyridine]-6-carboxylic acid]",85 to 94,95 to 100,95 to 100,95 to 100,85 to 94,85 to 94,95 to 100,95 to 100,95 to 100,95 to 100,95 to 100,95 to 100,60 to 74,60 to 74,167 to 169,95 to 100,95 to 100,75 to 84,85 to 94,85 to 94,"pest or weed control at 140 g/ha [2, 12]: 85 to 94%; pest or weed control at 70 g/ha [2, 13]: 0 to 29%; pest or weed control at 140 g/ha [2, 13]: 0 to 29%; pest or weed control at 70 g/ha [2, 14]: 75 to 84%; pest or weed control at 140 g/ha [2, 14]: 85 to 94%; pest or weed control at 70 g/ha [2, 15]: 75 to 84%; pest or weed control at 140 g/ha [2, 15]: 85 to 94%; pest or weed control at 70 g/ha [2, 16]: 45 to 59%; pest or weed control at 140 g/ha [2, 16]: 60 to 74%; pest or weed control at 70 g/ha [2, 17]: 60 to 74%; pest or weed control at 140 g/ha [2, 17]: 75 to 84%"
"Cc1c(F)c(Cl)cc(F)c1-c1cc(N)c(Cl)c(C(=O)O)n1 [Compound 92, 4-amino-3-chloro-6-(4-chloro-3,6-difluoro-2-methylphenyl)picolinic acid]",95 to 100,95 to 100,95 to 100,95 to 100,95 to 100,95 to 100,95 to 100,95 to 100,0 to 29,30 to 44,95 to 100,95 to 100,60 to 74,75 to 84,160 to 162,0 to 29,0 to 29,0 to 29,0 to 29,0 to 29,"pest or weed control at 140 g/ha [2, 12]: 0 to 29%; pest or weed control at 70 g/ha [2, 13]: 0 to 29%; pest or weed control at 140 g/ha [2, 13]: 0 to 29%; pest or weed control at 70 g/ha [2, 14]: 0 to 29%; pest or weed control at 140 g/ha [2, 14]: 0 to 29%; pest or weed control at 70 g/ha [2, 15]: 0 to 29%; pest or weed control at 140 g/ha [2, 15]: 0 to 29%; pest or weed control at 70 g/ha [2, 16]: 30 to 44%; pest or weed control at 140 g/ha [2, 16]: 60 to 74%; pest or weed control at 70 g/ha [2, 17]: 0 to 29%; pest or weed control at 140 g/ha [2, 17]: 0 to 29%"
COC(=O)c1nc(-c2ccc(C(F)(F)F)nc2F)nc(N)c1Cl [Compound 47],0 to 29,0 to 29,0 to 29,0 to 29,0 to 29,0 to 29,0 to 29,45 to 59,0 to 29,0 to 29,0 to 29,0 to 29,0 to 29,0 to 29,150 to 153,0 to 29,0 to 29,0 to 29,0 to 29,0 to 29,"pest or weed control at 140 g/ha [2, 12]: 0 to 29%; pest or weed control at 70 g/ha [2, 13]: 0 to 29%; pest or weed control at 140 g/ha [2, 13]: 0 to 29%; pest or weed control at 70 g/ha [2, 14]: 0 to 29%; pest or weed control at 140 g/ha [2, 14]: 0 to 29%; pest or weed control at 70 g/ha [2, 15]: 0 to 29%; pest or weed control at 140 g/ha [2, 15]: 0 to 29%; pest or weed control at 70 g/ha [2, 16]: 0 to 29%; pest or weed control at 140 g/ha [2, 16]: 0 to 29%; pest or weed control at 70 g/ha [2, 17]: 0 to 29%; pest or weed control at 140 g/ha [2, 17]: 0 to 29%"
